Experimental data published in US4663320A, “(2-oxo-1,2,3,5-tetrahydroimidazo[2,1-b]quinoazolinyl)oxyalkylamides, compositions and the use thereof” (Syntex (U.S.A.) Inc., priority 1985, dated 1987).
Like-named read-outs stand apart in the source and are kept apart here.

Tests used:
[1] = tested on: Mongrel dogs; assay: Inotropic activity in anesthetized dogs; format: in vivo; settings: dog
Description: Mongrel dogs were anesthetized intravenously with 35 mg/Kg sodium pentobarbital and supplemented as needed. Blood pressure was measured with a Statham pressure transducer via a cannula inserted from a femoral artery into the abdominal aorta. Heart rate was recorded by a cardiotachometer from a lead II electrocardiogram. Right ventricular contractile force was recorded from a Walton-Brodie strain gauge sutured to the right ventricle following a midsternal thoracotomy. A Harvard respirator was used to ventilate the dogs with room air through an endotracheal tube. The dog was bilaterally vagotomized. Following a midline laparotomy, a cannula was sutured into the duodenum for intraduodenal administration of test compound. A femoral vein was cannulated for administration of isoproterenol. All data were recorded on a Beckman R611 Dynograph.
To assess the responsiveness of each dog, isoproterenol was given intravenously at half-log interval doses from 0.007 to 2.1 or 6.67 μg/Kg. The test compound was then administered intraduodenally, usually at a low dose of 2 mg/Kg and subsequently at higher doses of 6.32 and/or 20 mg/Kg, if necessary. In a few instances, some compounds administered intraduodenally at dose levels from 0.316 to 3.16 mg/Kg.

[2] = tested on: Human platelet cyclic AMP phosphodiesterase; assay: Cyclic AMP phosphodiesterase assay (human platelet); format: biochemical; settings: for IC50: human platelet phosphodiesterase, 1 μM cyclic AMP as substrate; for Relative Potency: relative to theophylline (assigned a value of 1) on human platelet phosphodiesterase
Description: (§1) The inhibition of cyclic AMP phosphodiesterase activity by the subject compounds was assayed by the method of Filburn and Karn, Analyt. Biochem., 52:505-516 (1973), using 1 μM cyclic AMP as the substrate. Human platelet cyclic AMP phosphodiesterase was obtained from human donors. Platelets were isolated and washed by centrifugation, the membranes ruptured by a sequential freeze-thaw procedure and hypotonic lysis and the soluble enzyme isolated by high speed centrifugation. The enzyme was stored in aliquots at -20° C.
(§2) This table contains the IC50 values for human platelet phosphodiesterase and IC25 values for rat heart phosphodiesterase.

[3] = tested on: Lewis Lung Carcinoma; assay: Antimetastatic activity against Lewis Lung Carcinoma (Spontaneous Metastases); format: in vivo, mouse; settings: oral 5 mg/kg every other day, day 20-21, p < 0.05
Description: Mice (female, C57B1/6, 16-18 gm) were inoculated subcutaneously between the inguinal and axillary areas with 0.2 ml of a freshly prepared tumor brei. Mice were treated orally with control vehicle (0.5% carboxymethylcellulose (CMC) or with test compound in suspension in 0.5% CMC. Treatments were initiated one day after tumor implantation, and continued every other day throughout the experiment. 20-21 days after initial implantation of the tumor, mice were sacrificed, weight of the primary tumor was determined, and the number of lung metastases was determined by counting under a disecting microscope. The results are shown in Table III.

[4] = tested on: B16-F10 melanoma cells; assay: Antimetastatic activity against B-16 Melanoma (B16-F10); format: in vivo, mouse; settings: oral 5 mg/kg every other day, day 20-21, control 23, p ≤ 0.01
Description: (§3) Mice (female, C57B1/6, 16-18 gm) were injected intravenously with either 7.5×10^4 viable B16-BL6 or B16-F10 melanoma cells, as indicated. The mice were orally treated with vehicle or drug, starting one day after tumor cell injection, and continuing every other day until the mice were sacrificed 20-21 days after tumor cell inoculation. The number of lung metastases was determined as described above, and the results are shown in Table IV (B16-BL6) or Table V (B16-F10).

[5] = tested on: B16-BL6 melanoma cells; assay: Antimetastatic activity against B-16 Melanoma (B16-BL6); format: in vivo, mouse; settings: oral 5 mg/kg every other day, day 20-21, control 10, p ≤ 0.02
Description: as §3

[6] = tested on: rat heart phosphodiesterase; assay: Cyclic AMP phosphodiesterase inhibition (rat heart); format: biochemical
Description: as §1, §2

[7] = tested on: male mice (Sim:(ICR)fBR); assay: Acute and delayed toxicity in mice; format: in vivo; settings: deaths/animals
Description: (§4) Three groups of three male mice (Sim:(ICR)fBR) in a weight range of 20 to 24 grams were used in this study. N-cyclohexyl-N-methyl-4-(2-oxo-1,2,3,5-tetrahydroimidazo[2,1-b]quinazolin- 7-yl)oxy-butyramide was administered intraperitoneally as an aqueous suspension (polysorbate 80).
(§5) When the test compound was administered orally, also as an aqueous suspension (polysorbate 80), the results are as follows: […]

[8] = Acute and delayed toxicity in mice; format: in vivo; settings: mouse, in vivo, mice, aqueous suspension (polysorbate 80)
Description: as §4, §5

SMILES: CN(C(=O)CCCOc1ccc2c(c1)CN1CC(=O)NC1=N2)C1CCCCC1 [N-cyclohexyl-N-methyl-4-(2-oxo-1,2,3,5-tetrahydroimidazo[2,1-b]quinazolin-7-yl)oxybutyramide]
- Blood Pressure, peak effect as % of max. isoproterenol ([1]; intraduodenal, 2 mg/kg): 25%
- Heart Rate, peak effect as % of max. isoproterenol ([1]; intraduodenal, 2 mg/kg): 30%
- Rt. Ventricular Contractile Force, peak effect as % of max. isoproterenol ([1]; intraduodenal, 2 mg/kg): 48%
- Blood Pressure, peak effect as % of max. isoproterenol ([1]; intraduodenal, 6.23 mg/kg): 96%
- Heart Rate, peak effect as % of max. isoproterenol ([1]; intraduodenal, 6.23 mg/kg): 40%
- Rt. Ventricular Contractile Force, peak effect as % of max. isoproterenol ([1]; intraduodenal, 6.23 mg/kg): 44%
- IC50 [2]: 12.5 nM
- Relative Potency [2]: 21,600
- Pulmonary Metastases Median ([3]; control 28): 10.5
- Size of Primary Tumor ([3]; ± S.E., control 5.1 ± 0.4): 3.9 ± 0.4 gm
- Pulmonary Metastases Median [4]: 1.5
- Pulmonary Metastases Median [5]: 3
- Rat Heart IC25 [6]: 260 nM
- Death ([7]; intraperitoneal, 500 mg/Kg): 0/3
- Death ([7]; intraperitoneal, 1,000 mg/Kg): 0/3
- Death ([7]; intraperitoneal, 1,500 mg/Kg): 0/3
- Death ([7]; oral, 500 mg/Kg): 0/3
- Death ([7]; oral, 1,000 mg/Kg): 0/3
- Death ([7]; oral, 1,500 mg/Kg): 0/3
- LD50 ([8]; ip, intraperitoneal, read-out: LD50 (intraperitoneal)): > 1500 mg/kg
- LD50 ([8]; oral, read-out: LD50 (oral)): > 1500 mg/kg

SMILES: C[C@@H]1C(=O)NC2=Nc3ccc(OCCCC(=O)N(C)C4CCCCC4)cc3CN21 [N-cyclohexyl-N-methyl-4-(2-oxo-3-D-methyl-1,2,3,5-tetrahydroimidazo[2,1-b]quinazolin-7-yl)oxybutyramide]
- Blood Pressure, peak effect as % of max. isoproterenol ([1]; i.v., 0.1 mg/kg): 82%
- Heart Rate, peak effect as % of max. isoproterenol ([1]; i.v., 0.1 mg/kg): 73%
- Rt. Ventricular Contractile Force, peak effect as % of max. isoproterenol ([1]; i.v., 0.1 mg/kg): 43%
- Blood Pressure, peak effect as % of max. isoproterenol ([1]; intraduodenal, 0.316 mg/kg): 13%
- Heart Rate, peak effect as % of max. isoproterenol ([1]; intraduodenal, 0.316 mg/kg): 18%
- Rt. Ventricular Contractile Force, peak effect as % of max. isoproterenol ([1]; intraduodenal, 0.316 mg/kg): 18%
- Blood Pressure, peak effect as % of max. isoproterenol ([1]; intraduodenal, 1.0 mg/kg): 49%
- Heart Rate, peak effect as % of max. isoproterenol ([1]; intraduodenal, 1.0 mg/kg): 48%
- Rt. Ventricular Contractile Force, peak effect as % of max. isoproterenol ([1]; intraduodenal, 1.0 mg/kg): 50%
- Blood Pressure, peak effect as % of max. isoproterenol ([1]; intraduodenal, 3.16 mg/kg): 82%
- Heart Rate, peak effect as % of max. isoproterenol ([1]; intraduodenal, 3.16 mg/kg): 72%
- Rt. Ventricular Contractile Force, peak effect as % of max. isoproterenol ([1]; intraduodenal, 3.16 mg/kg): 53%
- IC50 [2]: 5.4 nM
- Relative Potency [2]: 50,000
- Rat Heart IC25 [6]: 27 nM
